Reference: publication PMC10548421, “Anticancer Potential of Diruthenium Complexes with Bridging Hydrocarbyl Ligands from Bioactive Alkynols” (Inorganic Chemistry, 2023)

Legend:
A2780 cells [1] = test: Mitochondrial membrane potential analysis (MITO-ID); format: cell-based, human; conditions: A2780, complexes 4 μM, cisplatin 15 μM, 24 h
Method: (§1) The A2780 ovarian carcinoma cell line was received from Merck (reference 93112519–1VL) and cultured at 37 °C in an environment with 5% CO2. The cultivation was carried out in complete cell culture medium (RPMI-1640 medium, Merck), which was supplemented with 10% fetal bovine serum (FBS, Merck), 1% L-glutamine (Merck) and 1% penicillin–streptomycin–neomycin (PSN, Merck). For the flow cytometry experiments, three independent duplicates were analyzed using a BD FACSVerse flow cytometer (Becton Dickinson, USA). At least 5 × 10^3 events were recorded for each sample. The same procedure was replicated for the experiments described below. Solutions of the complexes were formulated using the stock solutions (Section 5.1).
To investigate the effects on mitochondrial membrane potential of A2780 cells, an MITO-ID Membrane potential detection kit (Enzo Life Sciences, USA) was used. Cells were seeded in a 24-well (5 × 10^4 cells/well), and then incubated with 4 μM solution of complexes for 24 h. The supernatant was collected, cells were washed with warm PBS, detached using 0.25% trypsin-EDTA (Gibco) and resuspended in a cell culture medium. Then, samples were stained with diluted MITO-ID MP Detection Reagent (according to the protocol) at RT for 15 min, prior to flow cytometry analysis. A positive control was established by treating the samples with 2 μM carbonyl cyanide 3-chlorophenylhydrazone.

[2] = tested on: HOS human osteosarcoma cell line; test: MTT in vitro cytotoxicity, HOS; format: cell-based; conditions: incubation 24 h, mean ± SD
Method: The cytotoxicity assessment was conducted on various human cancer cell lines, including A2780 ovarian carcinoma, A2780R cisplatin-resistant ovarian carcinoma, MCF-7 breast, HOS osteosarcoma, A549 epithelial lung, PANC-1 pancreatic, Caco-2 colorectal, PC-3 prostate adenocarcinoma, and HeLa cervical cell lines. Additionally, the assessment extended to a normal human fetal fibroblast cell line (MRC-5). Cells were obtained from ATCC collection and cultivated according to the producer’s instructions. Stock solutions of the compounds were prepared in DMF immediately before application, and diluted with H2O to achieve the final concentration of 0.1% v/v DMF.[99] The culture media were enriched with 10% fetal calf serum. Subsequently, the cells were exposed to the tested compounds, vehicle (0.1% v/v DMF) and Triton X-100 (1% v/v), during incubation. The conventional MTT assay was carried out following different incubation periods (Tables 5-6). The absorbance was measured at 570 nm by using a spectrophotometer (Infinite M200, Schoeller Instruments, Prague, Czech Republic). The obtained data are presented as the percentage of cell viability with 100% representing negative control treatment (0.1% v/v DMF) and 0% representing the positive control (Triton X-100). The half-maximal inhibitory concentrations (IC50) were determined from dose–response curves using GraphPad Prism 6 software (GraphPad Software, San Diego, USA).

A2780 cells [3] = test: Cell cycle analysis (flow cytometry, PI); format: cell-based, human; conditions: A2780, 4 μM, 24 h
Method: as §1
These studies were conducted on A2780 cells using the BD Cycletest Plus DNA kit (from Becton Dickinson, USA). Thus, cells were seeded in 96-well plates (10^4 cells/well) and treated with 4 μM complexes 3a and 3b for 24 h. Following the incubation period, cells underwent a series of procedural steps. Initially, they were rinsed using PBS (0.1 M, pH 7.4). […]

A2780 cells [4] = test: Autophagy analysis (CYTO-ID); format: cell-based, human; conditions: A2780, complexes 4 μM, cisplatin 15 μM, 24 h
Method: as §1
The potential induction of autophagy by 3a and 3b in A2780 cells was studied with the kit CYTO-ID Autophagy Detection 2.0 (from Enzo Life Sciences, USA), following the protocol provided by the manufacturer. […] The supernatant was collected, cells were washed with warm PBS, detached using 0.25% trypsin-EDTA (Gibco) and resuspended in a cell culture medium. Diluted CYTO-ID Green stain solution (according to the protocol) was used to stain the samples. Following incubation for 30 min in a light-protected environment, the samples were washed with PBS (phosphate-buffered saline). Subsequently, a flow cytometry experiment was conducted. A mixture of chloroquine (10 μM) and rapamycin (0.5 μM) was used as positive control.

[5] = Stability in H2O/CH3OH solution (UV–vis); format: physicochemical; conditions: ca. 5:1 v/v
Method: […] The percentage of remaining complex in the solution was calculated by considering the change in absorbance at the characteristic wavelength. The identical procedure was employed to evaluate stability in MeOH and DMEM (about 1:5 v/v) solutions. DMEM stands for the cell culture medium (containing 1000 mg/L glucose and L-glutamine, excluding sodium bicarbonate and phenol red; reference D2902-Merck).

A2780 cells [6] = test: ROS production assessment (ROS-ID); format: cell-based, human; conditions: A2780, 4 μM, 24 h
Method: as §1
ROS-ID Total ROS/Superoxide detection kit (from Enzo Life Sciences, US) was employed to quantify ROS and superoxide generation in A2780 cells following the treatment with the tested compounds. Thus, cells were seeded in a 96-well plate (10^4 cells/well) and incubated with 4 μM solution of complexes for 24 h. A 100 μM solution of pyocyanin, which is a known oxidative-stress inducer, was used as a positive control. […] Finally, a microplate reader Infinite M200Pro (Tecan, Switzerland) was used to measure sample fluorescence (green: Ex. 488 nm/Em. 520 nm, and red: Ex. 550 nm/Em. 610 nm) and three independent experiments were done in triplicates.

Row | Compound | cell count with damaged mitochondrial membranes (in words) (A2780 cells [1]) | IC50 [2] | effect on the cell cycle (in words) (A2780 cells [3]) | autophagy level (in words) (A2780 cells [4]) | residual complex % in H2O/CH3OH ([5]; 2 h) | residual complex % in H2O/CH3OH ([5]; 18 h) | intracellular ROS levels (in words) (A2780 cells [6]) | residual complex % in H2O/CH3OH ([5]; 30 min)
1 | F[B-](F)(F)F.O=[C]=[Ru+]1([CH]2C=CC=C2)[C](=O)[Ru]1(=[C]=O)([CH]=C=C1CCCC1)[CH]1C=CC=C1 (stereo not drawn) [3a, [Ru2Cp2(CO)3{μ–η^1:η^2-CH=C=(cyclopentylidene)}]BF4] | notable augmentation | 14.6 ± 0.5 µM | strong depression of the cell number in the synthetic (S) phase and second gap and mitotic phases (G2/M) | not appreciable | 96% | 78% | noteworthy elevation of intracellular ROS levels | 
2 | CC12CCC3c4ccc(O)cc4CCC3C1CCC2=C=[CH][Ru]1(=[C]=O)([CH]2C=CC=C2)[C](=O)[Ru+]1(=[C]=O)[CH]1C=CC=C1.F[B-](F)(F)F (mixture of isomers) [3b, [Ru2Cp2(CO)3{μ–η^1:η^2-CH=C=(estradiolylidene)}]BF4] | notable augmentation | 12.6 ± 0.5 µM | strong depression of the cell number in the synthetic (S) phase and second gap and mitotic phases (G2/M) | only moderately | 92% | 43% | no appreciable effect | 99%
